Assay [1] concerns ERK1/2 phosphorylation. The note with it: neocortical explants (Singh, 2000); cited from earlier work.
The test system of assay [2] is ERK1/2 phosphorylation. The experiment in a line: Phosphorylation of ERK1/2 in ERKO CLM and non-CLM preparations. The assay is classed as biochemical, mouse. As to conditions: for phosphorylation of ERK1/2: 30 minutes. As for the experimental part:
Phosphorylation of ERK1/2 in CLM and non-CLM preparations. Phosphorylation of ERK1/2 in ERKO CLM and non-CLM preparations was examined following the method of Liu et al. (Liu, 1997), except that basal medium Eagle (BME) was used in the place of MEM. Nine parts of CLM or non-CLM preparations were mixed with one part of 10×BME, pH 7.4 containing BSA 800 μg/ml, 10 mM NaF, 2 mM Na3VO4, leupeptin 100 μg/ml, soybean trypsin inhibitor 100 μg/ml, 10 mM MgCl2, and 1 mM ATP. […] Cell Signaling Technology, Beverly, Mass.) for 30 minutes prior to pulsing them with the appropriate estradiol. […] (Singh, 1999; and Singh, 2000).

For assay [3], the system named is ERK1/2 phosphorylation. The experiment in a line: ERK1/2 phosphorylation in post-nuclear supernatant (PNS), cell-free system. The note with it: for phosphorylation of ERK1 and ERK2: P7 wild-type neocortical PNS, 10 minutes, 37° C. The assay is classed as biochemical, mouse. An excerpt: Isolation of post-nuclear supernatant (PNS). To increase the yield of ER-X and to test in a cell-free system whether the presence of ER-α is inhibitory for ERK activation, as had been shown previously in neocortical cultures (Singh, 2000), PNS, a cell-free system which contains all the cell organelles except the nucleus, was studied. PNS was isolated from P7 wild-type and ERKO neocortices according to the method of Smart et al. (Smart, 1995). Three to four P7 wild-type and ERKO neocortices were homogenized using a teflon homogenizer in 1 ml of 20 mM Tricine, pH 7.8 buffer, containing 1 mM EDTA, 0.25M sucrose, 10 μg/ml aprotinin and 1 μg/ml leupeptin. The homogenate was centrifuged at 1000×g at 4° C. for 10 minutes. The supernatant obtained is the PNS. The pellet was resuspended in 500 μl of the homogenization buffer, re-centrifuged, and the PNS obtained was pooled with the first PNS. ERKO and wild-type PNS were mixed with 10X phosphorylation buffer, and the MAPK assay was performed as described above.

The subject of assay [4] is ER-X (plasma-membrane estrogen binding site of P7 ERKO neocortex). In words: Specificity (competition) of 3H-estradiol binding in Percoll-purified P7 ERKO neocortical membranes. Details: species or system mouse. The note with it: 2 nM 3H-estradiol, 18 hours at 4° C. As for the experimental part:
Binding of ^3H estradiol to Percoll®-purified plasma-membranes from P7 ERKO and wild-type mouse neocortex. (a) Identical amounts of membrane protein (50 μg/tube) were incubated with varying concentrations of ^3H estradiol (0.3-8 nM) for 18 hours at 4° C. The reaction was terminated by addition of hydroxylapatite (HAP). The membranes and HAP were sedimented by centrifugation in a microfuge, and the pellet washed 4 times to remove free steroid. Radioactivity in the pellets was extracted with ethanol and counted. […] (b) Specificity of the binding site in Percoll®-purified membranes from P7 ERKO mouse neocortex. […] Bound ^3H estradiol was separated by sedimentation with HAP and counted at an efficiency of 50%. Data represent the number of bound counts (after subtraction of HAP-only blank control tubes, containing no membrane protein) expressed as the means +/−S.D. of triplicate determinations. The horizontal dashed line indicates the level of non-specific binding observed in the presence of 1 μM DES. Estrogen binding assay. Duplicate aliquots of 1 mg each of protein lysate from ERKO P7 neocortex or wild-type adult uterus were pre-cleared for 30 minutes using anti-rabbit-IgG-coated magnetic beads (Dynal AS). Pre-cleared protein lysates were immunoprecipitated with anti-ER-α antibodies (6F11, Novocastra; or MC20, Santa Cruz) at 4° C. overnight. […] NEN Life Sciences, Boston, Mass.) at 4° C. for 18 hours. The incubation was terminated by adsorption of the binding sites onto an equal volume of hydroxylapatite (HAP) slurry in TESD buffer. HAP pellets were washed four times with Tris-buffered saline containing 0.2% Tween-20 buffer and extracted with 1 ml absolute ethanol overnight at room temperature. The ethanol supernatants were transferred to liquid scintillation fluid (5 ml) and counted. Control tubes, used in assessing HAP adsorption of free steroid, contained HAP and the same buffer constituents, without addition of the membranes. Non-specific binding was assayed in the membranes using the same amount of radioactive ligand plus 200-fold molar excess of unlabeled diethylstilbestrol (DES) (Sigma-Aldrich). Specific binding was calculated by subtracting non-specific from total binding.

The test system of assay [5] is ERK1/2 phosphorylation. In words: ERK1/2 phosphorylation in neocortical explant cultures (Western immunoblot). The assay is classed as cell-based, mouse. As to conditions: wild-type neocortical cultures. (A western blot detects proteins with antibodies after separation by electrophoresis.)
Procedure: Neocortical cultures. Organotypic explant cultures, obtained from 360 pm hemi-coronal slices of the frontal and cingulate neocortex of P2 wild-type and ERKO mice (day of birth =P1), were explanted onto collagen-coated, poly-D-lysine pre-coated coverslips and maintained in roller tube culture with gonadal steroid-deficient (gelding serum) and phenol red-free nutrient medium, as previously described (Singh, 1999; and Singh, 2000). The nutrient medium was supplemented with 17β-estradiol (2 nM; Sigma-Aldrich, St. Louis, Mo.) for one week, in order to optimize the development of CNS cultures from estrogen target regions. […]
Antibody binding to protein was detected using a secondary antibody conjugated to horseradish peroxidase (1:40,000; Pierce Chemical Company, Rockford, Ill.), and visualized autoradiographically on film using enzyme-linked chemiluminescence (ECL®; Amersham Pharmacia Biotech) (Singh et, 1999; and Singh, 2000). All blots were stripped and re-probed with the appropriate antibody to verify equal loading of protein across lanes and were analyzed densitometrically. […]
Assay [6] concerns estrogen-binding protein (ER-X). In words: DES-sensitive 3H-estradiol binding in CLM preparations and lysates. Details: species or system mouse. The note with it: unlabeled competitor in excess. As for the experimental part: Caveolar-like membrane (CLM) preparation. Membrane fractions were prepared by adapting the detergent-free method of Smart et al. (Smart, 1995). Briefly, pools of 40-50 P7 ERKO neocortices were homogenized in 20 mM Tricine, pH 7.8 buffer, containing 1 mM EDTA, 0.25M sucrose and 1 mM dithiothreitol (TESD buffer), then centrifuged at 1000×g at 4° C. for 10 minutes. The pellet was resuspended in TESD buffer, re-centrifuged, and the supernatants pooled. The combined supernatants were subjected to Percoll® gradient fractionation in the same buffer to isolate the plasma membrane fraction. In some binding experiments (indicated below), Percoll® purified plasma membranes were used without further fractionation. For preparation of CLMs, plasma-membranes were sonicated and further separated by centrifugation on a linear 20% to 10% OptiPrep (iodixanol) gradient (Nycomed Pharma AS, Oslo, Norway). Based upon their light buoyant density, CLMs were separated and purified from non-CLMs using two OptiPrep density gradients. […] Electrophoretically separated CLMs on PVDF membranes were probed with antibodies specific for ER-α ([…], UBI; MC20, Santa Cruz), ER-β (Zymed), flotillin (BD Transduction Labs) and other caveolar-resident proteins (PKC-α and PKC-γ, BD Transduction Labs) and non-caveolar-resident proteins (paxillin, BD Transduction Labs). Estrogen binding assay. Duplicate aliquots of 1 mg each of protein lysate from ERKO P7 neocortex or wild-type adult uterus were pre-cleared for 30 minutes using anti-rabbit-IgG-coated magnetic beads (Dynal AS). Pre-cleared protein lysates were immunoprecipitated with anti-ER-α antibodies (6F11, Novocastra; or MC20, Santa Cruz) at 4° C. overnight. […] NEN Life Sciences, Boston, Mass.) at 4° C. for 18 hours. The incubation was terminated by adsorption of the binding sites onto an equal volume of hydroxylapatite (HAP) slurry in TESD buffer. HAP pellets were washed four times with Tris-buffered saline containing 0.2% Tween-20 buffer and extracted with 1 ml absolute ethanol overnight at room temperature. The ethanol supernatants were transferred to liquid scintillation fluid (5 ml) and counted. Control tubes, used in assessing HAP adsorption of free steroid, contained HAP and the same buffer constituents, without addition of the membranes. Non-specific binding was assayed in the membranes using the same amount of radioactive ligand plus 200-fold molar excess of unlabeled diethylstilbestrol (DES) (Sigma-Aldrich). Specific binding was calculated by subtracting non-specific from total binding.

In assay [7] the test system is ERK1/2 phosphorylation. In words: Cholesterol depletion: ERK1/2 phosphorylation in neocortical explants pre-treated with Nystatin. It is filed as cell-based, mouse. As to conditions: P9 wild-type neocortical explants, 50 μg/ml for 1 hour before a 30 minute pulse. As for the experimental part:
Cholesterol depletion. To determine whether disruption of CLMs impairs estrogen activation of the MAPK cascade, neocortical explants were pre-treated on P9 with the sterol binding agent Nystatin (50 μg/ml) (Sigma-Aldrich), a compound used extensively to document the association of growth factor receptors with caveolae/CLMs (Huang, 1999). […] P9 neocortical explants were exposed to Nystatin (50 μg/ml) (Sigma-Aldrich), BDNF (10 ng/ml) or vehicle control (PBS) for 1 hour prior to pulsing with 10 nM 17β-estradiol for 30 minutes in the continued presence of Nystatin, BDNF or vehicle. Explants were then analyzed by Western immunoblot analysis for phospho-ERK expression using antibodies to phosphorylated p44/42 MAP Kinase (ERK1/2, Thr202/Tyr204; Cell Signaling Technology), as previously described (Singh, 1999; and Singh, 2000).

[8] abbreviates: 1 μM unlabelled competitor (500-fold molar excess).

“Also recorded” adds a separate entry of the source.

Take `C[C@]12CC[C@@H]3c4ccc(O)cc4CC[C@H]3[C@@H]1C[C@@H](I)[C@@H]2O` [16α-iodo-17β-estradiol]: the “activation of ERK1/2 by ER-α- or ER-β-selective ligands” value in the assay with ERK1/2 phosphorylation [1] is listed as “not activated”.

In the case of `C[C@]12CC[C@@H]3c4ccc(O)cc4CC[C@H]3[C@@H]1CC[C@H]2O` [17α-estradiol], the “phosphorylation of ERK1/2” value is “elicited phosphorylation of ERK1/2” with ERK1/2 phosphorylation [2] (P7 ERKO neocortical CLMs, 0.1 nM) and “did not respond” in the assay with ERK1/2 phosphorylation [2] (non-CLM regions of the plasma membrane, 0.1 nM). In the assay with ERK1/2 phosphorylation [3] (0.1 nM), the “phosphorylation of ERK1 and ERK2” value is “elicited MEK-dependent (U0126) phosphorylation of ERK1 and ERK2”. Also, the “inhibition of binding of 3H-estradiol” value in assay [4] (50 nM unlabelled competitor) is listed as “markedly inhibited”; in assay [4] (setting [8]), “reduced to the non-specific levels”.

`C[C@]12CC[C@@H]3c4ccc(O)cc4CC[C@H]3[C@@H]1CC[C@@H]2O` [17β-estradiol]: the “concentration range eliciting activation of ERK1/2” value with ERK1/2 phosphorylation [5] is 0.1 to 10 nM. The “phosphorylation of ERK1/2” value with ERK1/2 phosphorylation [2] (P7 ERKO neocortical CLMs, 10 nM) is reported as “elicited phosphorylation of ERK1/2”; with ERK1/2 phosphorylation [2] (non-CLM regions of the plasma membrane, 10 nM), “did not respond”. In the assay with ERK1/2 phosphorylation [3] (10 nM), the “phosphorylation of ERK1 and ERK2” value was “significantly less than the levels following exposure to 17α-estradiol; also recorded: elicited MEK-dependent (U0126) phosphorylation of ERK1 and ERK2”. Also, the figures for the “inhibition of binding of 3H-estradiol” value in assay [4] (50 nM unlabelled competitor) and in assay [4] (setting [8]) were “markedly inhibited” and “reduced to the non-specific levels”, respectively.

For the compound `CC/C(=C(/CC)c1ccc(O)cc1)c1ccc(O)cc1` [DES, diethylstilbestrol], in assay [6], the “effect on binding of 10 nM 3H-estradiol to P7 ERKO CLMs” value is “suppressed”.

For `C[C@@H]1[C@H](O)[C@@H](C)/C=C/C=C/CC/C=C/C=C/C=C/C=C/C(O[C@H]2O[C@H](C)[C@@H](O)[C@H](N)[C@@H]2O)CC2O[C@](O)(CC(O)C(O)CCC(O)CC(O)CC(O)CC(=O)O[C@H]1C)CC(O)C2C(=O)O` (stereo partly shown) [Nystatin], in the assay with ERK1/2 phosphorylation [7], the “effect on ERK1/2 phosphorylation elicited by 17β-estradiol (10 nM) and BDNF” value was “decreased the ability of both estradiol and BDNF to elicit ERK1/2 phosphorylation”.

Consider `N#CC(=C(/N)Sc1ccccc1N)/C(C#N)=C(\N)Sc1ccccc1N` [U0126], for which the “effect on estradiol-induced ERK activation” value in the assay with ERK1/2 phosphorylation [2] (P7 ERKO neocortical CLMs, 10 μM, 30 minutes pre-treatment) is given as “inhibited”. For the same compound, the “effect on estradiol-induced ERK1/2 phosphorylation” value with ERK1/2 phosphorylation [3] (wild-type neocortical PNS, 10 μM) is on record as “inhibited”.

Regarding `O=c1oc2cc(O)ccc2c2oc3cc(O)ccc3c12` [coumestrol], in the assay with ERK1/2 phosphorylation [1], the “activation of ERK1/2 by ER-α- or ER-β-selective ligands” value is listed as “not activated”.

Turning to `O=c1c(-c2ccc(O)cc2)coc2cc(O)cc(O)c12` [genistein], in the assay on ERK1/2 phosphorylation [1], the “activation of ERK1/2 by ER-α- or ER-β-selective ligands” value is listed as “not activated”.

With `CC(=O)[C@H]1CC[C@H]2[C@@H]3CCC4=CC(=O)CC[C@]4(C)[C@H]3CC[C@]12C` [progesterone], the “inhibition of binding of 3H-estradiol” value in assay [4] (setting [8]) is listed as “only partially suppressing binding”.
